Series [1] concerns Helicoverpa armigera. Description: Whole plant greenhouse assay, 3-way mixture, Helicoverpa armigera. As to conditions: tomato plants, 3rd instar larva, 72 hours; flubendiamide 30 GAH, profenofos 480 GAH, Ascophyllum Nodosum 120 GAH, solo or mixtures (1:16, 4:1, 1:16:4). How it is done: (§1) The action expected for a given combination of two or three active components can be calculated as follows: […]
(§2) The experiments were carried out to study synergies if any in terms of the use of insecticides (Flubendiamide & Profenofos) and Ascophyllum Nodosum extract mixture at ratio 1:16:4 and 1:16:6 for the control of insect pest and phytotonic effect, if any.
(§3) The whole plant assay was conducted in the greenhouse, in which the desired quantity of the compounds (Flubendiamide, Profenofos and Ascophyllum Nodosum extract) and mixture in the ratio of 1:16:4 and 1:16:6 were prepared. 40-45 days old tomato plants were used for the treatments. Prepared compounds (Table 7) were sprayed in the booth of Generation III research sprayer (to obtain uniformity in spray) with a delivery rate of about 500 L/hectare of spray solution through flat fan nozzle. After the treatment, the plants were allowed to dry and then moved to the laboratory. The treated plants were covered with a mylar sheet for restricting the larval movement. Single starved 3rd instar larva was released on to the plants individually and mylar sheet was covered at the top with a muslin cloth for better air ventilation. The observation on dead, moribund and alive larvae was recorded at 72 hours after the treatment.

Series [2] deals with Spodoptera litura. Description: Whole plant greenhouse assay, 3-way mixture, Spodoptera litura. As to conditions: tomato plants, 3rd instar larva, 72 hours; flubendiamide 30 GAH, profenofos 480 GAH, Ascophyllum Nodosum 120 GAH, solo or mixtures (1:16, 1:4, 4:1, 1:16:4). As to the method:
as §1, §2
as §3, with “and mylar was covered” for “and mylar sheet was covered”

The subject of another series is Thrips. Description: Whole plant greenhouse assay, 3-way mixture, Thrips. As to conditions: brinjal plants, thrips nymph, 72 hours; flubendiamide 30 GAH, profenofos 480 GAH, Ascophyllum Nodosum 120 GAH, solo or mixtures (1:16, 1:4, 4:1, 1:16:4). How it is done: as §1, §2
as §3, with “days old brinjal plants were” for “days old tomato plants were”, “larval movement. Nymph of thrips was released” for “larval movement. Single starved 3rd instar larva was released”, “and mylar was covered” for “and mylar sheet was covered”

The subject of series [3] is Spodoptera litura. Description: Field experiment, 3-way mixture, Spodoptera litura in tomato crop. As to conditions: 7 Day after application, flubendiamide 30 GAH, profenofos 480 GAH, Ascophyllum Nodosum 120 GAH, solo or mixtures (1:16, 1:16:4). How it is done: as §1
(§4) The Field experiment was conducted at PI Industries Limited, Agricultural Research Station, Hyderabad to evaluate the efficacy of mixture of Flubendiamide, Profenofos and Ascophyllum Nodosum against Spodoptera litura in tomato crop. The tomato seedlings were transplanted and all the recommended packages of practices for tomato farming were followed in the experiment, except for plant protection chemicals. The ratio of Flubendiamide, Profenofos and Ascophyllum Nodosum mixture was 1:16:4 and 1:16:6 and the experiment was carried out in plots of 5×5 m in a randomized block design with three replications for each treatment. The applications were done with the help of a knapsack sprayer having a delivery of about 500 L/hectare. Care was taken to avoid drift of spray solution to adjacent experimental plots. Assessment of all the treatments was done for vigor, phytotoxicity and insect control. Observation on the insect larval count per plot from fifteen randomly selected plants was recorded at one day before and on 7 Day after application. […] Vigor descriptive scale was totally based on visual observations. For vigor comparison among treatments, untreated plots were considered as 100 percent and based on that rating was given to other treatments.

For series [4], the system named is tomato crop. Description: Field experiment, 3-way mixture, vigor rating of tomato crop. The series is classed as in vivo. As to conditions: for plant vigor compared with control (visual observation): field, tomato crop; for Vigor rating: visual rating, untreated plots = 100 percent, flubendiamide 30 GAH, profenofos 480 GAH, Ascophyllum Nodosum 120 GAH, solo or mixtures (1:16, 1:4, 4:1, 1:16:4). The text has this: Vigor descriptive scale was totally based on visual observations.

The test system of series [5] is tomato crop. Description: Field experiment, 3-way mixture, yield of tomato fruits. Format: in vivo. As to conditions: flubendiamide 30 GAH, profenofos 480 GAH, Ascophyllum Nodosum 120 GAH, solo or mixtures (1:4, 4:1, 1:16:4). How it is done: as §1, §4
In series [6] the test system is Helicoverpa armigera. Description: Whole plant greenhouse assay, binary mixture, Helicoverpa armigera. As to conditions: tomato plants, 3rd instar larva, 72 hours; flubendiamide 30 GAH, Ascophyllum nodosum 120 GAH, solo or mixture 30 + 120 (1:4). The series is classed as in vivo. The text has this: (§5) 25 to 30 days old tomato plants were used for the treatments.
For series [7], the system named is Spodoptera litura. Description: Whole plant greenhouse assay, binary mixture, Spodoptera litura. The series is classed as in vivo. As to conditions: tomato plants, 3rd instar larva, 72 hours; flubendiamide 30 GAH, Ascophyllum nodosum 120 GAH, solo or mixture 30 + 120 (1:4).
Excerpt: as §5

Series [8] concerns Spodoptera litura. Description: Field experiment, binary mixture, Spodoptera litura in tomato crop. The series is classed as in vivo. The text has this: (§6) The tomato seedlings were transplanted and all the recommended package of practices for tomato farming was followed in the experiment, except for plant protection chemicals. […] Vigor descriptive scale was totally based on visual observations.

Series [9] deals with tomato crop. Description: Field experiment, binary mixture, vigor rating of tomato crop. The series is classed as in vivo.
Excerpt: (§7) The expected activity for a given combination of two active compounds (binary composition) can be calculated as follows: […]
(§8) In which E represents the expected percentage of inhibition of the disease for the combination of two pesticides at defined doses (for example equal to x and y respectively), x is the percentage of inhibition observed for the disease by the compound (1) at a given dose (equal to x), y is the percentage of inhibition observed for the disease by the compound (2) at a defined dose (equal to y).
as §6

Series [10] concerns tomato crop. Description: Field experiment, binary mixture, yield of tomato fruits. The series is classed as in vivo. As to conditions: flubendiamide 30 GAH, Ascophyllum nodosum 120 GAH, solo or mixture 30 + 120 (1:4).
Excerpt: as §7, §8, §6

For `CCCSP(=O)(OCC)Oc1ccc(Br)cc1Cl` (stereo not shown) [Profenofos, profenofos], the Observed % mortality in the series on Helicoverpa armigera [1] is listed as 50%; with Spodoptera litura [2], 52%; in the series on Thrips, 72%; in the series with Spodoptera litura [3] it was 55.6%. For the same compound, the “plant vigor compared with control (visual observation)” value in the series on tomato crop [4] is reported as “good plant vigor”. The Vigor rating with tomato crop [4] was found to be 120. For the same compound, the “Observed yield (ton/hectare) of tomato fruits” value in the series with tomato crop [5] was 56.95 ton/hectare.
In the case of `Cc1cc(C(F)(C(F)(F)F)C(F)(F)F)ccc1NC(=O)c1cccc(I)c1C(=O)NC(C)(C)CS(C)(=O)=O` [Flubendiamide, 3-iodo-N′-(2-mesyl-1,1-dimethylethyl)-N-{4-[1,2,2,2-tetrafluoro-1-(trifluoromethyl)ethyl]-o-tolyl}phthalamide], the “% mortality” value in the series on Helicoverpa armigera [6] and in the series with Spodoptera litura [7] was 70% throughout. The “efficacy against Spodoptera litura in tomato (in words)” value in the series on Spodoptera litura [8] (30 GAH) is recorded as “effectively controlled the insect pests”. Further, the “Spodoptera litura (% control) 7 DAA” value with Spodoptera litura [8] (tomato, 7 DAA, flubendiamide 30 GAH, Ascophyllum nodosum 120 GAH, solo or mixture 30 + 120 (1:4)) is given as 66.67%. In the series on Spodoptera litura [8] (tomato, 10 DAA, flubendiamide 30 GAH, Ascophyllum nodosum 120 GAH, solo or mixture 30 + 120 (1:4)), the “Spodoptera litura (% control) 10 DAA” value came out at 70.00%. Moreover, the “plant vigor compared with control (visual observation)” value in the series on tomato crop [9] (field, tomato crop) was “good plant vigor”; in the series with tomato crop [4] it was “good plant vigor”. Moreover, in the series on tomato crop [9] (visual rating, untreated plots = 100 percent, flubendiamide 30 GAH, Ascophyllum nodosum 120 GAH, solo or mixture 30 + 120 (1:4)), the Vigor worked out at 110. The “Yield of tomato fruits, Ton/ha (observed)” value in the series on tomato crop [10] was determined as 60.16 Ton/ha. The Observed % mortality was found to be 65% in the series on Helicoverpa armigera [1], 72% in the series with Spodoptera litura [2], 8% in the series on Thrips and 72.7% in the series on Spodoptera litura [3]. Moreover, the Vigor rating in the series on tomato crop [4] stood at 125. Further, in the series with tomato crop [5], the “Observed yield (ton/hectare) of tomato fruits” value is recorded as 64.20 ton/hectare.

These data come from patent US20240315243A1, “A COMBINATION OF FLU[…] SEAWEED EXTRACT” (priority 2021, published 2024).
